{
  "source": "patent US5994342A",
  "about": "“3-(substituted methyl)-4-oxa-1-azabicyclo[3.2.0]heptan-7-one derivatives useful as antitumor agents” (priority 1994, dated 1999)",
  "key": {"KB cells": {"system": "KB cells", "assay": "In vitro KB cell cytotoxicity assay (crystal violet)", "assay_type": "cell-based", "conditions": "Homo sapiens, 72 h, 3 days culture, read-out: KB Cell Cytotoxicity TD50", "procedure,_shortened": "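Cells seeded at 3×10^4 cells/ml in Eagle's MEM with 10% calf serum, cultured one day, then exposed to compound for three days at 37° C, 5% CO2. Glutaraldehyde-fixed cells stained with 0.05% crystal violet, eluted and read at OD540; TD50 from linear regression of log-logit plot of growth inhibition.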"}, "P388 (S) cells": {"system": "P388 (S) cells", "assay": "In vitro P388 cell cytotoxicity (microculture tetrazolium assay), sensitive line", "assay_type": "cell-based", "conditions": "Mus musculus, 72 h, read-out: Cell Toxicity P388 (S) (TD50)", "method": "(§1) In Vitro L1210 and P388 Cell Cytotoxicity Assay\n(§2) Cells were counted using neubauer hemocytometer and seed in 96 well plates at 100 μl of 0.5×10^4 cells per ml. […] Control wells were identical except that the test compound was absent. These were cultured for three days. Results were assayed using the microculture tetrazolium assay briefly. 50 μl of MTT formazoan working solution (1:5 v/v in culture medium) was added to each well and cultures were incubated at 37° C. for 4 hrs. Culture plates were centrifuged at low speed for 5 minutes. All but 10-20 μl of culture medium supernatant was removed by slow aspiration and […] and read at OD540 on a multiscan spectrophotometer. Inhibition value of cell growth was calculated based on optical density using the following equation; [formula]\n(§3) TD50 values were calculated from linear regression ines of the log-logit plot."}, "L-1210 (S) cells": {"system": "L-1210 (S) cells", "assay": "In vitro L1210 cell cytotoxicity (microculture tetrazolium assay), sensitive line", "assay_type": "cell-based", "conditions": "Mus musculus, L1210, 72 h, read-out: Cell Toxicity L-1210 (S) (TD50)", "method": "as §1, §2, §3"}, "Sarcoma 180": {"system": "Sarcoma 180", "assay": "In vivo antitumor activity against Sarcoma 180", "parameters": "species or system male ICR mice", "conditions": "i.p., days 1, 5 and 9", "procedure,_shortened": "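Male ICR mice (6 weeks) inoculated s.c. with 5×10^6 Sarcoma 180 cells on day 0, dosed on days 1, 5 and 9 (6–7 per group). Tumours weighed on day 12; % inhibition from mean tumour weight of treated versus control group.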"}, "P388 (R) cells": {"system": "P388 (R) cells", "assay": "In vitro P388 cell cytotoxicity (microculture tetrazolium assay), resistant line", "assay_type": "cell-based", "conditions": "Mus musculus, read-out: Cell Toxicity P388 (R) (TD50)", "method": "as §1, §2, §3"}, "L-1210 (R) cells": {"system": "L-1210 (R) cells", "assay": "In vitro L1210 cell cytotoxicity (microculture tetrazolium assay), resistant line", "assay_type": "cell-based", "conditions": "Mus musculus, L1210, 72 h, read-out: Cell Toxicity L-1210 (R) (TD50)", "method": "as §1, §2, §3"}, "antifungal activity": {"system": "antifungal activity", "conditions": "reported by Brown and Evans; cited from earlier work"}, "Chemical stability": {"assay": "Chemical stability", "assay_type": "physicochemical"}, "antitumor activity [1]": {"system": "antitumor activity", "assay": "Antitumor activity of clavam 1 in vitro", "assay_type": "cell-based"}, "antitumor activity [2]": {"system": "antitumor activity", "assay": "Antitumor activity of clavam 1 in vivo"}, "[3]": {"conditions": "L-1210 sensitive, 3 days culture"}, "[4]": {"conditions": "72 h, P388 resistant, 3 days culture"}, "[5]": {"conditions": "L-1210 resistant, 3 days culture"}},
  "note": "Read-outs that look alike come from different tables or passages of the source.",
  "data": [
    {"smiles": "CC(=O)NC[C@@H]1CN2C(=O)C[C@H]2O1", "note": "(racemic) [Example 1, (3RS,5RS)-3-(N-Acetylaminomethyl)-4-oxa-1-azabicyclo[3.2.0]heptan-7-one]", "values": [
      {"measurement": "IC50", "setting": "KB cells", "value": 0.263, "unit": "µg/mL"},
      {"measurement": "IC50", "setting": "P388 (S) cells; P388 sensitive, 3 days culture", "value": 0.103, "unit": "µg/mL"},
      {"measurement": "IC50", "setting": "L-1210 (S) cells; [3]", "value": 0.103, "unit": "µg/mL"},
      {"measurement": "Mortality in 12 days", "setting": "Sarcoma 180; 3.1 mg/kg/day", "value": "0/6"},
      {"measurement": "Mortality in 12 days", "setting": "Sarcoma 180; 6.25 mg/kg/day", "value": "0/6"},
      {"measurement": "Mortality in 12 days", "setting": "Sarcoma 180; 12.5 mg/kg/day", "value": "0/6"},
      {"measurement": "inhibition in vivo at 3.1 mg/kg", "setting": "Sarcoma 180; Mus musculus, Sarcoma-180, ip, 288 h, 3.1 mg/kg/day, tumor s.c., tumor weight day 12, read-out: % Inhibition of tumor growth", "value": 33.9, "unit": "%"},
      {"measurement": "inhibition in vivo at 6.25 mg/kg", "setting": "Sarcoma 180; Mus musculus, Sarcoma-180, ip, 288 h, 6.25 mg/kg/day, tumor s.c., tumor weight day 12, read-out: % Inhibition of tumor growth", "value": 49.3, "unit": "%"},
      {"measurement": "inhibition in vivo at 12.5 mg/kg", "setting": "Sarcoma 180; Mus musculus, Sarcoma-180, ip, 288 h, 12.5 mg/kg/day, tumor s.c., tumor weight day 12, read-out: % Inhibition of tumor growth", "value": 71.4, "unit": "%"},
      {"measurement": "IC50", "setting": "P388 (R) cells; [4]", "value": 0.074, "unit": "µg/mL"},
      {"measurement": "IC50", "setting": "L-1210 (R) cells; [5]", "value": 0.104, "unit": "µg/mL"}
    ]},
    {"smiles": "COc1cccc2c1C(=O)c1c(O)c3c(c(O)c1C2=O)C[C@@](O)(C(=O)CO)C[C@@H]3O[C@H]1C[C@H](N)[C@H](O)[C@H](C)O1", "note": "[Adriamycin]", "values": [
      {"measurement": "IC50", "setting": "P388 (S) cells", "value": 0.003, "unit": "µg/mL"},
      {"measurement": "IC50", "setting": "L-1210 (S) cells", "value": 0.004, "unit": "µg/mL"},
      {"measurement": "IC50", "setting": "P388 (R) cells; P388, 72 h", "value": 0.575, "unit": "µg/mL"},
      {"measurement": "IC50", "setting": "L-1210 (R) cells", "value": 0.36, "unit": "µg/mL"}
    ]},
    {"smiles": "CC(C)C(N)C(=O)NC(C(=O)O)C(O)C1CN2C(=O)CC2O1", "note": "(centres unmarked) [Example G0069A]", "values": [
      {"measurement": "IC50", "setting": "P388 (S) cells; P388 sensitive, 3 days culture", "value": 1.02, "unit": "µg/mL"},
      {"measurement": "IC50", "setting": "L-1210 (S) cells; [3]", "value": 2.17, "unit": "µg/mL"},
      {"measurement": "IC50", "setting": "P388 (R) cells; [4]", "value": 0.751, "unit": "µg/mL"},
      {"measurement": "IC50", "setting": "L-1210 (R) cells; [5]", "value": 1.87, "unit": "µg/mL"}
    ]},
    {"smiles": "CC[C@]1(O)C[C@H]2CN(CCc3c([nH]c4ccccc34)[C@@](C(=O)OC)(c3cc4c(cc3OC)N(C=O)[C@H]3[C@@](O)(C(=O)OC)[C@H](OC(C)=O)[C@]5(CC)C=CCN6CC[C@]43[C@@H]65)C2)C1", "note": "[Vincristine]", "values": [
      {"measurement": "IC50", "setting": "L-1210 (S) cells", "value": 0.002, "unit": "µg/mL"},
      {"measurement": "IC50", "setting": "P388 (R) cells; P388, 72 h", "value": 0.279, "unit": "µg/mL"},
      {"measurement": "IC50", "setting": "L-1210 (R) cells", "value": 0.2, "unit": "µg/mL"}
    ]},
    {"smiles": "O=C1C[C@@H]2O[C@@H](CO)CN12", "note": "[clavam 1, (3R,5S)-3-hydroxymethyl-4-oxa-1-azabicyclo[3.2.0]heptan-7-one]", "values": [
      {"measurement": "antifungal activity", "setting": "antifungal activity", "value": "exhibit antifungal activity"},
      {"measurement": "chemical stability", "setting": "Chemical stability", "value": "chemically unstable"},
      {"measurement": "antitumor activity in vitro", "setting": "antitumor activity [1]", "value": "excellent antitumor activity"},
      {"measurement": "antitumor activity in vivo", "setting": "antitumor activity [2]", "value": "excellent antitumor activity"}
    ]}
  ]
}
